Counter-ions that a name gives are not always drawn.
biological target: T1, epithelial sodium channel (ENaC) (Homo sapiens, UniProt P37088+P51168+P51170); experiment: Short circuit current (ISC) measurements in human bronchial epithelial cells, inhibition of amiloride-sensitive ISC; assay type: cell-based; settings: inhibition of the amiloride-sensitive ISC; HBECs cultured at air-liquid interface, Ussing chamber, compound added to apical chamber
T1 construct: host or cells: primary human bronchial epithelial cells (HBECs), differentiated at the air-liquid interface
T1 sequence (P37088 1-669): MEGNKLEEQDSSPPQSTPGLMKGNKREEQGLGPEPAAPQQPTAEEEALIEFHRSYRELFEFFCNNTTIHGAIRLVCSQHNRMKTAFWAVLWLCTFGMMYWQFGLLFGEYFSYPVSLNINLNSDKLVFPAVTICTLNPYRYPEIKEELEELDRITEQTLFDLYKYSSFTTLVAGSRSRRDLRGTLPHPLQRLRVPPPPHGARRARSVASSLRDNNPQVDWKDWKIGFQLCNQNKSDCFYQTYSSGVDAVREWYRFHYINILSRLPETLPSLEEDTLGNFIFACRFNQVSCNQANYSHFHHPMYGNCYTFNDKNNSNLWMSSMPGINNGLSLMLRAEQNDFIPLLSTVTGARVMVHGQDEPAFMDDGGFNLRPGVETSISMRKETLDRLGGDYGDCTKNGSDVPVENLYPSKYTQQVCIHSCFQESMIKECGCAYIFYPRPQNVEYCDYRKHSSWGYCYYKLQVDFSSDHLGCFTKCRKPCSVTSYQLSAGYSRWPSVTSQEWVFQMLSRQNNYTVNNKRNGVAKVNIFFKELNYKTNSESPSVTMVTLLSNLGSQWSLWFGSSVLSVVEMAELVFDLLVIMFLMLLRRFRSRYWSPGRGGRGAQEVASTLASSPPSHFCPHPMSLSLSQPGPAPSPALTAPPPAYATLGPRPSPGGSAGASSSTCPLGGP
T1 sequence (P51168 1-640): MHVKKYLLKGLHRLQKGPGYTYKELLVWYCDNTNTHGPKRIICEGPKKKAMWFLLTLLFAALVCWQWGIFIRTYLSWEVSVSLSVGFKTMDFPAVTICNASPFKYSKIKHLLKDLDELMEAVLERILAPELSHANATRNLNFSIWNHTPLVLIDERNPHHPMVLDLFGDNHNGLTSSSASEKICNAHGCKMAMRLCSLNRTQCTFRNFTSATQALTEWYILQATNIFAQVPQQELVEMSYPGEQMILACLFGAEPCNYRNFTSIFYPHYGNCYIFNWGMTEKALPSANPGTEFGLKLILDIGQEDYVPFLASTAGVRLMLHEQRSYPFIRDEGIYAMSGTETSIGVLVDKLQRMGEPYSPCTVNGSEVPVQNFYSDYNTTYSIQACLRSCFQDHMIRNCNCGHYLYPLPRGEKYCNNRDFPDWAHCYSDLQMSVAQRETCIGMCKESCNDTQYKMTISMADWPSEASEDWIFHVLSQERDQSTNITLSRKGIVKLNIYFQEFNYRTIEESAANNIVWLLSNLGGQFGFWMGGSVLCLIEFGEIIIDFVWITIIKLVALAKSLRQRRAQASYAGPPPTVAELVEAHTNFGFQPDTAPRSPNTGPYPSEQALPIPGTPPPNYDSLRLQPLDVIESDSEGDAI
T1 sequence (P51170 1-649): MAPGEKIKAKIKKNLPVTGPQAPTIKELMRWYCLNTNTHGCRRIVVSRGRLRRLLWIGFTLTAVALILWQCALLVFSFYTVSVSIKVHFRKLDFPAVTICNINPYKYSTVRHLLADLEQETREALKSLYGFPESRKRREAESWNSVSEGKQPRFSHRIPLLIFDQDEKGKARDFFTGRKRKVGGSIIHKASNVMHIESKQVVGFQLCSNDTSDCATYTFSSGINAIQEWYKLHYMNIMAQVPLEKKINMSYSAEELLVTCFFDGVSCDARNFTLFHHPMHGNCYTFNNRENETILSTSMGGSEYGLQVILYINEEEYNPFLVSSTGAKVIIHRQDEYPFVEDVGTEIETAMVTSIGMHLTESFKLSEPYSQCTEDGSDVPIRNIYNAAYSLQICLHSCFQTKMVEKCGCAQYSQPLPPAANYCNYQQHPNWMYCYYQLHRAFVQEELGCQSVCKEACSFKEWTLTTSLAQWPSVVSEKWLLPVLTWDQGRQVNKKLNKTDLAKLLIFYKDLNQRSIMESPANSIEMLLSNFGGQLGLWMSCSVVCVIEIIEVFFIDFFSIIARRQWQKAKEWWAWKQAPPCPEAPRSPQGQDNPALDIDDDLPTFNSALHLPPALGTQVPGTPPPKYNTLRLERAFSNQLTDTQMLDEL
Description: Compounds of formula (I), hereinafter referred to alternatively as “agents of the invention”, are useful as pharmaceuticals. In particular, the compounds have good ENaC blocker activity and may be tested in the following assays.
Human Bronchial Epithelial cells (HBECs) (Cambrex) were cultured under air-liquid interface conditions to provide a well differentiated mucociliary phenotype.
HBECs were cultured using a modification of the method described by Gray and colleagues (Gray et al., 1996). Cells were seeded in plastic T-162 flasks and were grown in bronchial epithelial cell growth medium (BEGM; Cambrex) supplemented with bovine pituitary extract (52 μg/mL), hydrocortisone (0.5 μg/mL), human recombinant epidermal growth factor (0.5 ng/mL), epinephrine (0.5 μg/mL), transferrin (10 μg/mL), insulin (5 μg/mL), retinoic acid (0.1 μg/mL), triiodothyronine ([…]), gentamycin (50 μg/mL) and amphotericin B (50 ng/mL). Medium was changed every 48 hours until cells were 90% confluent. Cells were then passaged and seeded (8.25×10^5 cells/insert) on polycarbonate Snapwell inserts (Costar) in differentiation media containing 50% DMEM in BEGM with the same supplements as above but without triiodothyronine and a final retinoic acid concentration of 50 nM (all-trans retinoic acid). Cells were maintained submerged for the first 7 days in culture, after which time they were exposed to an apical air interface for the remainder of the culture period. At this time, media was changed to DMEM:F12 media containing 2% v/v Ultroser G for the remainder of culture. Amphotericin B was removed from all media 3 feeds prior to use in the Ussing Chambers. Cells were used between days 7 and 21 after establishment of the apical-air interface. At all stages of culture, cells were maintained at 37° C. in 5% CO2 in an air incubator.
Snapwell inserts were mounted in Vertical Diffusion Chambers (Costar) and were bathed with continuously gassed Ringer solution (5% CO2 in O2; pH 7.4) maintained at 37° C. containing (in mM): 120 NaCl, 25 NaHCO3, 3.3 KH2PO4, 0.8 K2HPO4, 1.2 CaCl2, 1.2 MgCl2, and 10 glucose. The solution osmolarity was between 280 and 300 mOsmol/kg H2O for all physiological salt solutions used. Cells were voltage clamped to 0 mV (model EVC4000; WPI). RT was measured by applying a 1- or 2-mV pulse at 30-s intervals and calculating RT by Ohm's law. Data were recorded using a PowerLab workstation (ADInstruments).
Test compounds were prepared as a 10 mM stock solution in DMSO (95%). Serial 3-fold dilutions were freshly prepared in an appropriate vehicle (distilled H2O or Ringers solution). The initial concentration was added to the apical chamber as a 1000× concentrate in 5 μL, resulting in a final 1× concentration the 5 mL volume of the Ussing chamber. Subsequent additions of compound were added in a 3.3 μL volume of the 1000× serially diluted stock solution. At the completion of the concentration-response experiment, amiloride (10 μM) was added into the apical chamber to enable the total amiloride-sensitive current to be measured. An amiloride control IC50 was established at the start of each experiment.
Results are expressed as the mean % inhibition of the amiloride-sensitive ISC. Concentration-response curves were plotted and IC50 values generated using GraphPad Prism 3.02. Cell inserts were typically run in duplicate and the IC50 calculated on the mean % inhibition data.

IC50	SMILES
5320 nM	C[N+]1(C)CCC[C@@H]1CNC(=O)c1nc(Cl)c(N)nc1N [Example 11, (R)-2-{[(3,5-Diamino-6-chloro-pyrazine-2-carbonyl)-amino]-methyl}-1,1-dimethyl-pyrrolidinium iodide]
2270 nM	C[N+](C)(CCCc1ccc(OCC(O)CO)cc1)CCNC(=O)c1nc(Cl)c(N)nc1N (stereo not drawn) [Example 126, {2-[(3,5-Diamino-6-chloro-pyrazine-2-carbonyl)-amino]-ethyl}-{3-[4-(2,3-dihydroxy-propoxy)-phenyl]-propyl-dimethyl-ammonium trifluoroacetate]
5810 nM	C[N+](C)(C)CCNC(=O)c1nc(Cl)c(N)nc1N [Example 130, {2-[(3,5-Diamino-6-chloro-pyrazine-2-carbonyl)-amino]-ethyl}-trimethyl-ammonium iodide]
250 nM	CCC[C@H](CNC(=O)c1nc(Cl)c(N)nc1N)[N+](C)(C)C [Example 1, ((R)-1-{[(3,5-Diamino-6-chloro-pyrazine-2-carbonyl)-amino]-methyl}-butyl)-trimethyl-ammonium iodide]
2 nM	COc1ccc(CCC[N+](C)(CCCc2ccc(OC)cc2)CCNC(=O)c2nc(Cl)c(N)nc2N)cc1 [Example 20, {2-[(3,5-diamino-6-chloro-pyrazine-2-carbonyl)-amino]-ethyl}-bis-[3-(4-methoxy-phenyl)-propyl]-methyl-ammonium trifluoroacetate]
640 nM	C[N+]1(CCNC(=O)c2nc(Cl)c(N)nc2N)CCC(Cc2ccccc2)CC1 (stereo not drawn) [Example 16, 4-Benzyl-1-{2-[(3,5-diamino-6-chloro-pyrazine-2-carbonyl)-amino]-ethyl}-1-methyl-piperidinium iodide]
240 nM	C[N+](C)(CCCNC(=O)Cc1ccc(OCc2ccccc2)cc1)CCNC(=O)c1nc(Cl)c(N)nc1N [Example 50, {3-[2-(4-Benzyloxy-phenyl)-acetylamino]-propyl}-{2-[(3,5-diamino-6-chloro-pyrazine-2-carbonyl)-amino]-ethyl}-dimethyl-ammonium bromide]
410 nM	COc1ccc2c(c1)CCCC2CC(=O)NCC[N+](C)(C)CCNC(=O)c1nc(Cl)c(N)nc1N (stereo not drawn) [Example 35, {2-[(3,5-Diamino-6-chloro-pyrazine-2-carbonyl)-amino]ethyl}-{2-[2-(6-methoxy-1,2,3,4-tetrahydro-naphthalen-1-yl)-acetylamino]-ethyl}-dimethyl-ammonium hexafluorophosphate]
25 nM	CCC[C@@H](CNC(=O)c1nc(Cl)c(N)nc1N)[N+](C)(C)CCCc1ccc(OC[C@@H](O)CO)cc1 [Example 124, ((S)-1-{[(3,5-Diamino-6-chloro-pyrazine-2-carbonyl)-amino]-methyl}-butyl)-{3-[4-((S)-2,3-dihydroxy-propoxy)-phenyl]-propyl}-dimethyl-ammonium trifluoroacetate]
4 nM	CCC[C@@H](CNC(=O)c1nc(Cl)c(N)nc1N)[N+](C)(C)CCCc1ccc(OC)cc1 [Example 120, ((S)-1-{[(3,5-Diamino-6-chloro-pyrazine-2-carbonyl)-amino]-methyl}-butyl)-[3-(4-methoxy-phenyl)-propyl]-dimethyl-ammonium trifluoroacetate]
3460 nM	C[N+](C)(C)C1(CNC(=O)c2nc(Cl)c(N)nc2N)CCCC1 [Example 9, (1-{[(3,5-Diamino-6-chloro-pyrazine-2-carbonyl)-amino]-methyl}-cyclopentyl)-trimethyl-ammonium iodide]
46 nM	C[N+](C)(C)[C@@H](CCCCNC(=O)CCc1ccc(OCc2ccccc2)cc1)CNC(=O)c1nc(Cl)c(N)nc1N [Example 14, ((S)-5-[3-(4-Benzyloxy-phenyl)-propionylamino]-1-{[(3,5-diamino-6-chloro-pyrazine-2-carbonyl)-amino]-methyl}-pentyl)-trimethyl-ammonium iodide]
240 nM	C[N+](CCCc1ccc(OCC(O)CO)cc1)(CCCc1ccc(OCC(O)CO)cc1)CCNC(=O)c1nc(Cl)c(N)nc1N (stereo not drawn) [Example 125, {2-[(3,5-Diamino-6-chloro-pyrazine-2-carbonyl)-amino]-ethyl}-bis-{3-[4-(2,3-dihydroxy-propoxy)-phenyl]-propyl}-methyl-ammonium trifluoroacetate]
5690 nM	CCC[N+](CCCc1ccc(OC)cc1)(CCCc1ccc(OC)cc1)CCNC(=O)c1nc(Cl)c(N)nc1N [Example 21, {2-[(3,5-Diamino-6-chloro-pyrazine-2-carbonyl)-amino]-ethyl}-bis-[3-(4-methoxy-phenyl)-propyl]-propyl-ammonium trifluoroacetate]
52 nM	C[N+](C)(C)[C@@H](CCCCNC(=O)Cc1ccc(OCc2ccccc2)cc1)CNC(=O)c1nc(Cl)c(N)nc1N [Example 15, ((S)-5-[2-(4-Benzyloxy-phenyl)-acetylamino]-1-{[(3,5-diamino-6-chloro-pyrazine-2-carbonyl)-amino]-methyl}-pentyl)-trimethyl-ammonium iodide]
